Assay results reported in patent publication EP2003118A1, “Cinnamic acid derivatives as modulators of EP2 receptors” (Bayer Schering Pharma Aktiengesellschaft, priority 2007, dated 2008).

Assays:
[1] = biological target: T1, EP2-Subtyp des humanen PGE2-Rezeptors (Homo sapiens, UniProt P43116); assay: cAMP antagonism test (HTRF cAMP, in presence of PGE2); format: cell-based; conditions: cAMP Antagonismustest, PGE2 as agonist; read-out: Antagonismus [IC50
T1 construct: host or cells: cells in a culture plate
T1 sequence (P43116 whole entry): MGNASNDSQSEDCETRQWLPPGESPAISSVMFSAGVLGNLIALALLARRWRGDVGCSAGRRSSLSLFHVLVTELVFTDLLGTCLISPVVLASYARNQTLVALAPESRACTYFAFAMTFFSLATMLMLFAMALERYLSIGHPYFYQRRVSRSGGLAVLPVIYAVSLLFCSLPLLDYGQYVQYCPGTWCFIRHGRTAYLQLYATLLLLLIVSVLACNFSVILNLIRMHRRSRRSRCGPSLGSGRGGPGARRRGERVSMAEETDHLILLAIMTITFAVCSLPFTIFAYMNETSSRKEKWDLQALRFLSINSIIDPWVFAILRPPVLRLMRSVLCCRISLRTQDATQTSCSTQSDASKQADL
Description: Die Bindung von PGE2 an den EP2-Subtyp des humanen PGE2-Rezeptors induziert die Aktivierung membranständiger Adenylatzyklasen und führt zur Bildung von cAMP. In Gegenwart des Phosphodiesteraseinhibitors IBMX wird das durch diese Stimulation akkumulierte und mittels Zell-Lyse freigesetzte cAMP in einem kompetitiven Nachweisverfahren eingesetzt. In diesem Test konkurriert das cAMP im Lysat mit cAMP-XL665 um die Bindung eines Eu-Kryptat markierten Anti-cAMP Antikörpers.
Dabei entsteht in Abwesenheit von zellulärem cAMP ein maximales Signal, welches auf der Kopplung dieses Antikörpers an das cAMP-XL665 Molekül beruht. Dadurch entsteht nach Anregung bei 337 nm ein auf FRET (fluorescence resonance energy transfer) basierendes, lang anhaltendes Emissionssignal bei 665 nm (und bei […]). Beide Signale werden in einem geeigneten Messgerät zeitlich versetzt, d.h. nach Abklingen der Hintergrundsfluoreszenz gemessen. Jegliche Erhöhung des durch Prostglandin-E2-Gabe bedingten niedrigen FRET-Signals (gemessen als Well-Ratio-Veränderung = Emission665nm/Emission620nm * 10000) zeigt die Wirkung von Antagonisten.
Die in einer Testplatte und 30 % DMSO vorgelegten Substanzlösungen (0.75 µl) werden in 16 µl einer KRSB+IBMX-Stimulationslösung gelöst (1 X Krebs-Ringer Bicarbonate Buffer; Sigma-Aldrich # K-4002; inklusive 750 µM 3-Isobutyl-1-methylxanthine Sigma-Aldrich # 1-7018), anschließend werden 15 µl davon in eine medienfreie Zellkulturplatte überführt, die kurz zuvor mit KRSB gewaschen worden war.
Nach einer 30-minütigen Vorinkubation bei Raumtemperatur (RT) werden 5 µl einer 4xPGE2 Lösung (11 nM) zugegeben und in Gegenwart des Agonisten für weitere 60 min bei RT inkubiert (Volumen: ~ 20 µl), bevor die Reaktion anschlieβend durch Zugabe von 5 µl Lysispuffer gestoppt und für weitere 20 min bei RT inkubiert wird (Volumen: ~ 25 µl). Das Zell-Lysat wird anschließend in eine Messplatte überführt und entsprechend den Herstellerangaben (cyclic AMP kit Cisbio International # 62AMPPEC) gemessen.

Kumulus-Eizell Komplexe = assay: cumulus expansion test in vitro; format: cell-based, Mäusen; conditions: competing with PGE2
Description: In immaturen weiblichen Mäusen (Stamm : CD1 (ICR) von Charles River) wird in einem Alter von 14 - 18 Tagen die Follikulogenese durch eine einmalige Gabe (intraperitoneal) von 10 I.E. PMSG (Pregnant Mare Serum Gonadotropine; Sigma G-4877, Lot 68H0909) induziert. 47 - 50 Stunden nach der Injektion werden die Ovarien entnommen und die Kumulus-Eizell Komplexe entnommen. Der Kumulus Komplex ist in diesem Stadium noch nicht expandiert. Die Kumulus-Eizell Komplexe werden nun für 20 - 24 Stunden mit Prostaglandin E2 (PGE2) (0,3 µM), Vehikel Kontrolle (Ethanol) oder Testsubstanzen inkubiert. Medium: alpha- MEM Medium mit 0,1 mM IBMX, Pyruvate (0,23 mM) Glutamine (2 mM), Pen/Strep 100 IU/ml Pen. und 100 µg/ml Strep.) und HSA (8 mg/ml)). Danach wird die Kumulus Expansion durch die Einteilung in vier Stadien (nach Vanderhyden et al. Dev Biol. 1990 Aug; 140(2):307-317) festgestellt. Tabelle 1: Beispiel für die biologische Wirksamkeit der erfindungsgemäßen Verbindungen (gemessen mittels cAMP Antagonismustest): […]

[2] = biological target: T1, EP2-Subtyp des humanen PGE2-Rezeptors; assay: cellular cAMP agonism test; format: cell-based

| SMILES | IC50 [1] | other results |
| --- | --- | --- |
| Cc1[nH]c2c(F)ccc(C)c2c1CCNC(=O)C=Cc1ccncc1 (mixture of isomers) [Beispiel 2, (E/Z)-N-[2-(7-Fluor-2,4-dimethyl-1H-indol-3-yl)-ethyl]-3-pyridin-4-yl-acrylamid] | 1500 nM | – |
| CC(C)Oc1ccc2c(=O)c3cc(C(=O)O)ccc3oc2c1 [AH 6809, reference compound] | – | Unterdrückung der Kumulus Expansion (Kumulus-Eizell Komplexe; 100 - 200 µM): ca. 30% |
| Cc1[nH]c2c(F)ccc(C)c2c1CCNC(=O)/C=C/c1ccc2c(c1)OCO2 [Beispiel 1, (E)-3-Benzo[1,3]dioxol-5-yl-N-[2-(7-fluor-2,4-dimethyl-1H-indol-3-yl)-ethyl]-acrylamid] | – | Unterdrückung der Kumulus Expansion (Kumulus-Eizell Komplexe; at a 10-fold lower concentration than AH 6809 (100 - 200 µM)): 61% |
| Cc1[nH]c2c(F)ccc(C)c2c1CCNC(=O)/C=C/c1ccc(OCCN(C)C)cc1 [Beispiel 18, (E)-3-[4-(2-Dimethylamino-ethoxy)-phenyl]-N-[2-(7-fluor-2,4-dimethyl-1H-indol-3-yl)-ethyl]-acrylamid] | 2200 nM | – |
| Cc1[nH]c2c(F)ccc(C)c2c1CCNC(=O)/C=C/c1cccc(S(N)(=O)=O)c1 [Beispiel 36, (E)-N-[2-(7-Fluor-2,4-dimethyl-1H-indol-3-yl)-ethyl]-3-(3-sulfamoyl-phenyl)-acrylamid] | 1000 nM | Wirkung im zellulären Agonismustest [2]: keine Inhibition |
| Cc1[nH]c2c(F)ccc(C)c2c1CCNC(=O)/C=C/c1cncc2ccccc12 [Beispiel 47, (E)-N-[2-(7-Fluor-2,4-dimethyl-1H-indol-3-yl)-ethyl]-3-isochinolin-4-yl-acrylamid] | 1500 nM | – |
